In the test the target is T1, Angiotensin II (A II) receptor (Oryctolagus cuniculus, UniProt P34976).
T1 construct: membrane preparation derived from rabbit aortae; tissue Pel-Freeze Biologicals; host or cells: frozen rabbit aortae, membrane preparation
T1 sequence (P34976 1-359): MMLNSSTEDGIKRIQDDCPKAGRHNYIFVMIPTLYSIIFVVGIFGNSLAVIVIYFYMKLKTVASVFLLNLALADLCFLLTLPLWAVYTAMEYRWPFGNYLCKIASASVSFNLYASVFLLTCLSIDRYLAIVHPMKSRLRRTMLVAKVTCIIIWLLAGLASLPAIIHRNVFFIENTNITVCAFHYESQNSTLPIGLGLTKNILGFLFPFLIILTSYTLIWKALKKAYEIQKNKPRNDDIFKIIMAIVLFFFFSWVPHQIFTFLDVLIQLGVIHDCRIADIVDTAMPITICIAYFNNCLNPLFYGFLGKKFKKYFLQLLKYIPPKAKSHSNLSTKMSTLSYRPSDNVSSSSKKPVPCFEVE
As to the kind of experiment: Receptor binding assay using rabbit aortae membrane preparation (displacement of 125I-Sar1Ile8-angiotensin II; the "IC50" assay). As to conditions: membrane preparation derived from rabbit aortae; 37° C., 90 minutes; read-out: inhibitory concentration (IC50) giving 50% displacement of the total specifically bound 125I-Sar1 Ile8-angiotensin II. The method, then: This assay is also referred to herein as the "IC50 " assay.
RECEPTOR BINDING ASSAY USING RABBIT AORTAE MEMBRANE PREPARATION
Three frozen rabbit aortae (obtained from Pel-Freeze Biologicals) were suspended in 5 mM Tris-0.25M Sucrose, pH 7.4 buffer (50 ml) homogenized, and then centifuged. The mixture was filtered through a cheesecloth and the supernatant was centrifuged for 30 minutes at 20,000 rpm at 4° C. The pellet thus obtained was resuspended in 30 ml of 50 mM Tris-5 mM MgCl2 buffer containing 0.2% Bovine Serum Albumin and 0.2 mg/ml Bacitration and the suspension was used for 100 assay tubes. Samples tested for screening were done in duplicate. To the membrane preparation (0.25 ml) there was added ^125 I-Sar^1 Ile^8 -angiotensin II [obtained from New England Nuclear] (10 ul; 20,000 cpm) with or without the test sample and the mixture was incubated at 37° C. for 90 minutes. The mixture was then diluted with ice-cold 50 mM Tris-0.9% NaCl, pH 7.4 (4 ml) and filtered through a glass fiber filter (GF/B Whatman 2.4" diameter). The filter was soaked in scintillation cocktail (10 ml) and counted for radioactivity using Packard 2660 Tricarb liquid scintillation counter. […]

The results in this text go back to patent US5087702A, “Microbial transformation process for producing an antihypertensive product” (Merck & Co., Inc., priority 1991, dated 1992).

Molecules are shown by their SMILES.

As for `CCCc1nc2c(C)ccnc2n1Cc1ccc(-c2ccccc2-c2nnnn2CC2=CC(O)C(O)C(O)C2=O)cc1` (stereo not shown) [Compound I], the IC50 was less than 50 µM.
